In US20240408226A1, “ANTIBODY DRUG CONJUGATE INTERMEDIATE CONTAINING SN38 AND ITS PREPARATION METHOD” (priority 2021, published 2024):

Columns and labels:
[1] = Stability in PB (0.2 M) buffer at 37° C., quantified by LC-MS; type: physicochemical; settings: for Remaining fraction T/T0: 37° C.
Experimental: The system was placed in a constant temperature system of 37° C. […] The system was placed in a constant temperature system of 37° C.; • 4) 40 μL of sample was respectively taken at 0 h, 2 h, 4 h, 6 h, 24 h, and 48 h, added with 120 μL of acetonitrile, and centrifuged. The supernatant was taken for quantitative determination by LC-MS. • 5) Results processing.
The concentration at T=0 h in LC-MS was used as the reference, and the data were calculated by T/T0*100%. The results are shown in Table 3 and Table 4, respectively.

[2] = system: non-small cell lung cancer; settings: non-small cell lung cancer after failed chemotherapy, targeting therapy and PD-1 treatment; cited from earlier work
small cell lung cancer = small cell lung cancer in which multiple treatments had failed; cited from earlier work
[3] = system: triple-negative breast cancer; settings: clinical phase II; cited from earlier work

| Compound | decomposed ([1]; alkaline conditions, at 24 h) [%] | decomposed ([1]; neutral conditions, at 6 h) [%] | decomposed ([1]; neutral conditions, at 24 h) [%] | Remaining fraction T/T0 ([1]; pH = 6, 0 h, 60 μg/mL) | Remaining fraction T/T0 ([1]; pH = 6, 2 h, 60 μg/mL) | Remaining fraction T/T0 ([1]; pH = 6, 4 h, 60 μg/mL) | Remaining fraction T/T0 ([1]; pH = 6, 6 h, 60 μg/mL) | Remaining fraction T/T0 ([1]; pH = 6, 24 h, 60 μg/mL) | Remaining fraction T/T0 ([1]; pH = 6, 48 h, 60 μg/mL) | Remaining fraction T/T0 ([1]; pH = 7, 0 h) | Remaining fraction T/T0 ([1]; pH = 7, 2 h) | Remaining fraction T/T0 ([1]; pH = 7, 4 h) | Remaining fraction T/T0 ([1]; pH = 7, 6 h) | Remaining fraction T/T0 ([1]; pH = 7, 24 h) | Remaining fraction T/T0 ([1]; pH = 7, 48 h) | Remaining fraction T/T0 ([1]; pH = 8, 0 h) | Remaining fraction T/T0 ([1]; pH = 8, 2 h) | Remaining fraction T/T0 ([1]; pH = 8, 4 h) | Remaining fraction T/T0 ([1]; pH = 8, 6 h) | Remaining fraction T/T0 ([1]; pH = 8, 24 h) | further results |
| --- | --- | --- | --- | --- | --- | --- | --- | --- | --- | --- | --- | --- | --- | --- | --- | --- | --- | --- | --- | --- | --- |
| CCc1c2c(nc3ccc(O)cc13)-c1cc3c(c(=O)n1C2)COC(=O)[C@@]3(CC)OC(=O)OCc1ccc(NC(=O)[C@@H](CCCCN)NC(=O)COCC(=O)NCCOCCOCCOCCOCCOCCOCCOCCOCCn2cc(CNC(=O)C3CCC(CN4C(=O)C=CC4=O)CC3)nn2)cc1 (stereo partly drawn) [CL2A-SN38] | 98 | 43 | 98 | 1 | 0.7479 | 0.6471 | 0.413 | 0.03593 | 0.02024 | 1 | 0.7038 | 0.5851 | 0.5715 | 0.02261 | 0.01906 | 1 | 0.6287 | 0.4347 | 0.3844 | 0.02532 | Remaining fraction T/T0 ([1]; pH = 8, 48 h): 0.01928; decomposed ([1]; pH of 6, after 48 h): 98.0%; decomposed ([1]; pH of 7, after 48 h): 98.1%; decomposed ([1]; pH of 8, after 48 h): 98.1% |
| CCc1c2c(nc3ccc(OC(=O)N(CCOCCOC(=O)N(C)CCN(C)C)CCN(C)C(=O)OCc4ccc(NC(=O)[C@H](CCCNC(N)=O)NC(=O)[C@@H](NC(=O)CCCCCN5C(=O)C=CC5=O)C(C)C)cc4)cc13)-c1cc3c(c(=O)n1C2)COC(=O)[C@]3(O)CC [Compound of formula (1), maleimidohexanoic acid-L-valyl-L-citrulline-p-aminobenzyl-(N-methylethyldiethoxy-N,N,N-trimethylethylenediami ne)-camptothecin] | 97 | 18 | 75 | 1 | 0.9886 | 0.9761 | 0.9208 | 0.8682 | 0.7886 | 1 | 0.8789 | 0.8018 | 0.8219 | 0.2567 | 0.1222 | 1 | 0.5641 | 0.2841 | 0.1234 | 0.009607 | Remaining fraction T/T0 ([1]; pH = 8, 48 h): 0.01256; decomposed ([1]; pH of 6, after 48 h): 21.2%; decomposed ([1]; pH of 7, after 48 h): 87.8%; decomposed ([1]; pH of 8, after 48 h): 98.7%; Stability compared with CL2A-SN38 ([1]; weak acidic conditions): more stable than CL2A-SN38; Stability compared with CL2A-SN38 ([1]; weak acidic or neutral conditions): higher stability |
| Sacituzumab govitecan |  |  |  |  |  |  |  |  |  |  |  |  |  |  |  |  |  |  |  |  | control rate [2]: up to 43%; tumor shrinkage, share of patients (small cell lung cancer): 60%; effective rate [3]: 30%; tumor shrinkage, share of patients [3]: 69.5% |
